Experimental data taken from patent US9618513B2, “Compositions and methods for detecting and treating colorectal cancer” (The Regents of the University of Michigan, priority 2014, dated 2017).
“Also recorded” adds a separate entry of the source.

Columns and labels:
Format in all cases: cell-based, human
H3K79me2 (DOT1L) = assay: Histone marks by western blot in colon cancer cells
Method: (§1) (A) IL-22 induces H3K79me2 in colon cancer cells. Colon cancer cells were treated with IL-22 for 48 hours. Total histone modifications were analyzed by western blot. (B, C) DOT1L inhibitor, EPZ004777 suppresses colon cancer sphere formation induced by IL-22. Colon cancer sphere assay was performed in the presence of IL-22 and EPZ004777. Sphere numbers were recorded. DLD-1 cells (B), primary colon cancer cells (C). (n=5, P<0.05). (D, E) IL-22 stimulates DOT1L complex gene expression. Colon cancer cells were cultured for 12 hours with IL-22. DOT1L complex gene expression was quantified by real-time PCR. DLD-1 cells (D), primary colon cancer cells (E). (n=3, P<0.05). (F) DOT1L knock down results in reduced colon cancer sphere formation induced by IL-22. Colon cancer sphere assay was performed with colon cancer cells expressing sh-DOT1L or vector in the presence of IL-22. Sphere numbers were recorded. (n=5, P<0.05). (G-I), IL-22 causes higher occupancy of H3K79me2 on core stem cell gene promoters. H3K79me2-ChIP assay was performed in DLD-1 colon cancer cells cultured with IL-22. One of 3 experiments is shown. […]
DLD1 and primary colon cancer cells (#2) were cultured with different concentrations of EPZ004777. Histone marks were detected by western blot. […]
Colon cancer cells were transfected with control vectors or the shDOT1L vector. Histone marks were detected by Western blot. […]

[1] = system: H3K79me2 on NANOG, SOX2, POU5F1 promoters; assay: H3K79me2-ChIP at core stem cell gene promoters
Method: as §1, with “shown. (J-L), DOT1L inhibitor, EPZ004777 results in reduced occupancy of H3K79 on core stem cell gene promoters induced by IL-22. H3K79me2 ChIP was performed in DLD-1 colon cancer cells cultured with or without IL-22 and EPZ004777. One of three experiments is shown.” for “shown.”

colon cancer cells = assay: Colon cancer cell proliferation (Ki67 FACS, H3 thymidine incorporation, cell counting)
From the text: A. GSEA analysis identifies proliferation pathways have positive correlation with IL-22. B. Cell proliferation maker Ki67 was detected by FACS. C. H^3 Thymidine Incorporation was used to detect the function of IL-22 in cell proliferation. D. Cell number was counted after stimulated with IL-22. E. Cells isolated from colon cancer tissue (Tumor cells and Leukocytes) were stimulated with a-CD3 and […] for 3 days, and supernatant mixed with or without anti-IL-22 antibody was co-cultured with DLD1 cells for 24 h to test cell proliferation. F. Cell cyclin-dependent kinase and kinase inhibitors were analyzed by Real-Time PCR.
A, C. Cell proliferation was analyzed using H^3 Thymidine Incorporation. B. The level of total H3K79m2 and H3K27me3 was measured by Western Blot. D. PcG proteins of EZH2, EED, SUZ12 was increased with IL-22(20 ng/ml) treatment. E. EZH2, SUZ12 and EED was detected by Western Blot after IL-22 treated for 24 h or 48 h. F. EZH2 inhibitor DZNep reduced cell proliferation. G.H. The efficiency of EZH2 and SUZ12 knock down was tested by Western Blot. I.J. Cell proliferation was analyzed using H^3 Thymidine Incorporation after knock down of EZH2 and SUZ12. K.L. Relative expression of cyclin-dependent kinase inhibitors (p16 and p18) in shEZH2, shSUZ12 and Dznep treated cells after IL-22 treatment. M. The level of H3K27me3 in the promoter of p16 and p18 was analyzed by ChIP assay.
A. The protein level of phosphorylated STAT3, STAT1 and STATS were activated by IL-22. B. The effect of STAT3 knock down. C. The effect of IL-22 on cell proliferation was analyzed using H^3 Thymidine Incorporation in Stat3 knock down cells. D. Knock down of STAT3 reduced the expression of EZH2 and SUZ12. E. Based on the ENCODE STAT3-ChIP-Seq data base, STAT3 occupancy on the promoter areas of SUZ12 and EED is shown. F. SUZ12/EED DNA was detected by ChIP assay using an antibody against STAT3, c-fos was used as a positive control.
Three primary colon cancer cell lines (SB, WR, JR) were established from fresh colon tissues. These primary colon cancer cells and DLD1 (ATCC) were studied. Colon cancer cells were treated with recombinant IL-22 (R&D) for different time points. The EZH2 inhibitor DZNep was added in conventional or sphere culture (see, e.g., Kryczek, I., et al., (2012) International journal of cancer 130, 29-39). Tumor cell sphere formation and gene expression were examined (see, e.g., Kryczek, I., et al., (2012) International journal of cancer 130, 29-39).

Compound | H3K79me2 / H3K79 methylation (H3K79me2 (DOT1L); DLD1 and primary colon cancer cells (#2), different concentrations) | H3K79me2 binding in the stem cell gene promoter sites induced by IL-22 ([1]; DLD-1 with or without IL-22 and EPZ004777) | colon cancer cell proliferation induced by IL-22 (colon cancer cells; H3 thymidine incorporation) | dimethylation of histone 3 lysine 79 (H3K79me2), total (H3K79me2 (DOT1L); colon cancer cells, IL-22 48 hours) | H3K79me2 binding in proximal promoter areas of NANOG, SOX2, POU5F1 ([1]; DLD-1 cultured with IL-22) | expression of Ki-67 (colon cancer cells; FACS) | cell proliferation (colon cancer cells; H3 thymidine incorporation and cell number counting)
CC(C)N(CCCNC(=O)Nc1ccc(C(C)(C)C)cc1)C[C@H]1O[C@@H](n2ccc3c(N)ncnc32)[C@H](O)[C@@H]1O [EPZ004777] | reduced; also recorded: specifically inhibits | reduced | no influence |  |  |  | 
IL-22: recombinant IL-22 (R&D systems), cytokine interleukin-22 |  |  |  | selectively increased | increase | increased | increased
